# Reference: paper PMC6222646, “HIV-1 Integrase-Targeted Short Peptides Derived from a Viral Protein R Sequence” (Molecules : A Journal of Synthetic Chemistry and Natural …, 2018)
# “And” between values parts separate entries of the source, which are not always exact repeats. Equal values may be shown once. Where a SMILES comes first, the peptide text is derived from it. [ ]: non-standard residue; d: D form. Bpa = N[C@@H](Cc1ccc(C(=O)c2ccccc2)cc1)C(=O)O
# Experiments:
# HIV-1 integrase (IN) [1] = target: T1, HIV-1 integrase (IN) (Human immunodeficiency virus type 1 group M subtype B, UniProt P12497); assay: In vitro integrase catalytic assay, 3'-processing (3'-P); format: biochemical; details: 400 nM IN, 20 nM 32P-labeled 21T/21B DNA, 37 °C, 2 h
# Experimental: (§1) IN reactions were performed as previously described. […] Reactions were performed at 37 °C (2 h) and quenched by the addition of an equal volume of loading buffer (formamide containing 1% sodium dodecyl sulfate, 0.25% bromophenol blue, and xylene cyanol). Reaction products were separated in 16% polyacrylamide denaturing sequencing gels. Dried gels were visualized using a Typhoon 8600 instrument (GE Healthcare, Chicago, IL, USA). Densitometric analyses were performed using ImageQuant 5.1 software (GE Healthcare, Chicago, IL, USA). Data analyses (linear regression, 50% inhibitory concentration [IC50] determination, standard deviation [SD]) were performed from at least 3 independent determinations using Prism 5.0c software from GraphPad (La Jolla, CA, USA). To assay 3′-P inhibitory potency, reactions were carried out with [γ-^32P]-labeled full-length oligonucleotide 21T ([…]) annealed to the complementary oligonucleotide 21B ([…]). Formation of the shorter processed 19T products was monitored and quantified to assess enzyme performance and inhibitor potency. The ST reactions were carried out with the [γ-^32P]-labeled pre-cleaved oligonucleotide 19T ([…]) annealed to the complementary oligonucleotide 21B ([…]) and formation of integration products (longer and slower migrating than the starting 19T substrate) was monitored to assess enzyme performance and inhibitor potency.
# HIV-1 integrase (IN) [2] = target: T1, HIV-1 integrase (IN); assay: In vitro integrase catalytic assay, strand transfer (ST); format: biochemical; details: 400 nM IN, 20 nM 32P-labeled pre-cleaved 19T/21B DNA, 37 °C, 2 h
# Experimental: as §1
# IN-DNA complex = IN-DNA complex (Human immunodeficiency virus type 1 group M subtype B, UniProt P12497); assay: IN-DNA complex formation by fluorescence anisotropy; format: binding, HIV-1; details: IN (400 nM) preincubated with peptide, 10 nM DNA
# Experimental: (§2) DNA binding was measured using a plate-based assay following fluorescence polarization of a fluorescent 21-mer duplex DNA substrate (21T/21B duplex oligonucleotide) with an AlexaFluor 488 modification at the 5′-end of the 21T oligonucleotide. Peptide or DMSO (control, without peptide) were incubated at room temperature for 5 min in the IN-activity buffer in the absence or the presence of IN (400 nM). After addition of the DNA (10 nM), fluorescence anisotropy was measured every 30 s for 30 min using an Envision plate reader (Perkin Elmer, Waltham, MA, USA).
# [3] = system: 21-mer duplex DNA substrate (21T/21B); assay: Binding to DNA substrate alone by fluorescence anisotropy; details: absence of IN; concentrations up to 37 µM
# Experimental: as §2
# HIV-1 IN [4] = target: T2, HIV-1 IN (Human immunodeficiency virus type 1 group M subtype B, UniProt P12497); assay: HTRF-based IN multimerization assay; format: biochemical; set-up: WT HIV-1 IN recombinant proteins with His or FLAG tags; made in house; host or cells: Escherichia coli; details: 100 µM peptide
# Experimental: WT HIV-1 IN recombinant proteins with His or FLAG tags were expressed in Escherichia coli and purified as described previously. The His6–tagged IN construct was purified by loading the cell lysate onto a Nickel-Sepharose column (GE Healthcare, Chicago, IL, USA) and eluting bound integrase with an imidazole gradient in a 50 mM HEPES (pH 7.5) buffer containing 1 M NaCl, 7.5 mM CHAPS, 2 mM beta-mercaptoethanol. Peak fractions were pooled, diluted and loaded onto a heparin column (GE Healthcare), and integrase was eluted with an increasing NaCl gradient in a 50 mM HEPES (pH 7.5) buffer containing 7.5 mM CHAPS and 2 mM beta-mercaptoethanol. The FLAG-tagged IN construct was purified by loading the ammonium sulfate precipitate of cell lysate onto a phenyl-Sepharose column (GE Healthcare) and eluting bound integrase with a decreasing ammonium sulfate gradient in a 50 mM HEPES (pH 7.5) buffer containing 200 mM NaCl, 7.5 mM CHAPS, 2 mM beta-mercaptoethanol. Peak fractions were pooled and loaded onto a heparin column (GE Healthcare), and integrase was eluted with an increasing NaCl gradient in a 50 mM HEPES (pH 7.5) buffer containing 7.5 mM CHAPS and 2 mM beta-mercaptoethanol. […] The HTRF signal was recorded using a PerkinElmer EnSpire multimode plate reader.
# HIV-1 IN [5] = target: T2, HIV-1 IN; assay: UV photo-crosslinking to IN with Western blot detection; format: binding; details: 15 (111 µM), IN (3.2 µM)
# Experimental: Peptide 15 (111 µM), containing a photo-reactive Bpa group and a biotin linked to its amino terminus, was incubated for 2 h at 37 °C in the absence or the presence of IN (3.2 µM) before UV irradiation (5 min at […]). After adding 2 × 10 µL of loading buffer, samples were heat-denatured at 95 °C (5 min). Products were separated on 16% SDS-PAGE and transferred to a PVDF membrane using an iBlot system (Invitrogen, Carlsbad, CA, USA). […] Reading was performed using an Odyssey® Infrared Imaging System (LI-COR Biotechnology, Lincoln, NE, USA).
# IN = system: IN; set-up: method as in PMID 17490682; details: read-out: IN ST-inhibitory potency IC50; cited from earlier work
Compound,IC50 (HIV-1 integrase (IN) [1]) [µM],IC50 (HIV-1 integrase (IN) [2]),Effect on IN-DNA complex formation (fluorescence polarization) (IN-DNA complex),Binding to DNA substrate alone [3],Induction of higher-order IN multimerization (HTRF signal) (HIV-1 IN [4]),Covalent crosslinking to IN upon UV irradiation (HIV-1 IN [5]),IC50 (IN) [µM]
"CC[C@H](C)[C@H](NC(=O)[C@H](CCCNC(=N)N)NC(=O)[C@H](Cc1ccccc1)NC(=O)[C@H](Cc1c[nH]cn1)NC(=O)[C@@H](NC(=O)[C@@H](N)Cc1ccccc1)[C@@H](C)CC)C(=O)NCC(=O)O [Peptide 1a, FIHFRIG] (H-FIHFRIG-OH)",17.6 ± 1.2,1 µM and 1.3 µM,"did not block the IN–DNA interactions, but rather promoted IN–DNA complex formation",no detectable binding,did not induce higher-order IN multimerization,–,–
"CC[C@H](C)[C@H](NC(=O)[C@H](CCCNC(=N)N)NC(=O)[C@H](Cc1ccccc1)NC(=O)[C@H](Cc1c[nH]cn1)NC(=O)[C@H](Cc1ccc(C(=O)c2ccccc2)cc1)NC(=O)[C@@H](N)Cc1ccccc1)C(=O)NCC(=O)O [Peptide 13a, FBHFRIG] (H-F[Bpa]HFRIG-OH)",37 ± 5,20 ± 3 µM,–,–,–,–,–
"CC[C@H](C)[C@H](NC(=O)[C@H](CCCNC(=N)N)NC(=O)[C@H](Cc1ccccc1)NC(=O)[C@H](Cc1c[nH]cn1)NC(=O)[C@@H](NC(=O)[C@@H](N)Cc1ccc(C(=O)c2ccccc2)cc1)[C@@H](C)CC)C(=O)NCC(=O)O [Peptide 14a, BIHFRIG] (H-[Bpa]IHFRIG-OH)",7.2 ± 1.2,2.1 ± 0.3 µM,–,–,–,–,–
Biotin-linker-BIHFRIG [Peptide 15],32 ± 7,2.3 ± 0.3 µM,–,–,–,covalent adducts of 15 with IN,–
QQLLFIHFRIGCQHS [Vpr (65–79)],–,–,–,–,–,–,14
